Experimental data from PMC12049818, “Identification of NUV-244 as a PNPLA3 I148M degrading small molecule” (iScience, 2025).

Biological target: T1, PNPLA3 I148M-tagRFP (Homo sapiens, UniProt Q9NST1, I148M)
T1 construct: host or cells: Huh7
T1 sequence (Q9NST1 1-481 I148M): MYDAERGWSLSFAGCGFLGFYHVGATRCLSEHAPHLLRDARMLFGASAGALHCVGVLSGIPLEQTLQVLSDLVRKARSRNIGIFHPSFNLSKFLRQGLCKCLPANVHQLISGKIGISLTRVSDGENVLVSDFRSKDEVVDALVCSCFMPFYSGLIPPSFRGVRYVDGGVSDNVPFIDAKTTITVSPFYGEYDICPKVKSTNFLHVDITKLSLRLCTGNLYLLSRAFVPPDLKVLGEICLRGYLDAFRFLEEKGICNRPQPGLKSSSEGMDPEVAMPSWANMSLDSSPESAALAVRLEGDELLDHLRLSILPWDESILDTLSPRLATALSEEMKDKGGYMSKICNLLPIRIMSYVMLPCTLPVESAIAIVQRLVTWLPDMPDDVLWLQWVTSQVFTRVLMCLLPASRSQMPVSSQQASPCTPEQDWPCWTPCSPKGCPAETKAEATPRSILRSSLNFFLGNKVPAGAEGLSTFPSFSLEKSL
Experiment: Time-lapse imaging of PNPLA3 I148M-tagRFP on lipid droplets in Huh7 cells
Type: cell-based
Procedure: To evaluate the kinetics of NUV-244 mediated reduction and degradation of PNPLA3 I148M-tagRFP, we performed time-lapse studies to follow PNPLA3 I148M-tagRFP over time (Figures 5A and 5B). 1μM or 5μM NUV-244 leads to rapid onset of reduction of PNPLA3 I148M-tagRFP on lipid droplets with half maximum effect reached after approximately 2h. To evaluate if PNPLA3 I148M-tagRFP degradation is 26S proteasome dependent, 1μM Bortezomib was co-incubated with NUV-244. Proteasome inhibition prevents PNPLA3 I148M-tagRFP reduction from lipid droplets (Figures 5A and 5B). […] A recent paper identified the E3 ligase responsible for the turnover of endogenous PNPLA3, the ER associated E3 ligase BFAR.[18]
Huh7 cells expressing PNPLA3 I148M-tagRFP were seeded at 4000 cells/well in 30 μL media in 384-well imaging plates (Revvity, PhenoPlate) and stored in a 37°C incubator with 5% CO2 and 95% humidity overnight. Cells were then incubated with Bodipy diluted in growth medium (38nM final concentration) for 1h at 37°C with 5% CO2 and 95% humidity. Cells were treated with DMSO control, 1 μM or 5 μM NUV-244, with or without 1 μM Bortezomib or 5 μM MLN7243. Cells were imaged every 15 minutes over a 20-hour period using an Opera Phenix confocal spinning disc microscope system (Revvity) with a 20x water objective at 561 nm (tagRFP) and 488 nm (BODIPY). Images were analyzed using Harmony software. PNPLA3 I148M-tagRFP intensity on lipid droplets was quantified and compared between treatments.

Compound | effect of co-treatment on NUV-244 induced decrease of PNPLA3 I148M-tagRFP on lipid droplets (1μM co-treatment with 1μM or 5μM NUV-244) | effect of co-treatment on NUV-244 induced decrease of PNPLA3 I148M-tagRFP on lipid droplets (5μM co-treatment with 1μM or 5μM NUV-244)
CC(C)C[C@H](NC(=O)[C@H](Cc1ccccc1)NC(=O)c1cnccn1)B(O)O [Bortezomib] | rescue of degradation | 
NS(=O)(=O)OC[C@H]1C[C@@H](Nc2ccnc3cc(-c4cccc(SC(F)(F)F)c4)nn23)[C@H](O)[C@@H]1O [MLN7243] |  | rescue of degradation
